Patent publication US9266904B2, “6-bridged heteroaryldihydropyrimidines for the treatment and prophylaxis of hepatitis B virus infection” (priority 2013, dated 2016)
Converted amounts (≈) assume the structure as drawn.

How the values were obtained:
[1] = test system: CYP3A4; conditions: human, 24 h
Description: Human cryopreserved hepatocytes (Life Technologies, Carlsbad, USA) were thawed and cultured in collagen I coated 96-well plates with a density of 52,000 cells/well. After attachment, medium was changed and cells were pre-cultured overnight in hepatocyte maintenance medium (HMM; Lonza, Switzerland).
Test compounds were dosed to the cells next morning at an indicated concentration (up to 10 μM) in HMM culture media containing gentamycin and a constant 0.1% DMSO. Similarly, dilutions of the positive inducer compounds omeprazole (prototypical inducer of human CYP1A2; final concentrations: 1 and 10 μM), phenobarbital (prototypical inducer of human CYP2B6; final concentrations: 100 and 1000 μM) and rifampicin (prototypical inducer of human CYP3A4; final concentrations: 1 and 10 μM) were prepared from 1000 fold DMSO stock solutions in HMM containing gentamycin. Medium change was then performed and cells were exposed for 24 hours to test compounds, positive inducer compounds, or vehicle (0.1% DMSO), respectively.
At the end of the compound exposure period, medium was removed and cells lysed using 100 μL/well MagNA Pure LC RNA isolation tissue lysis buffer (Roche Diagnostics AG, Rotkreuz, Switzerland). Plates were then sealed and frozen at −80° C. until further workup.
mRNA isolation was performed using the MagNA Pure 96 system (Roche Diagnostics AG, Rotkreuz, Switzerland) and the respective cellular RNA large volume kit (Roche Diagnostics AG, Rotkreuz, Switzerland) from thawed samples diluted 1:1 with PBS. The volume of the cell lysis and an elution volume of 100 μL were used. 20 μL of the resulting mRNA suspension was then used for reverse transcription using 20 μL of the transcript or first stand cDNA synthesis kit (Roche prime Supply, Mannheim, Germany). The resulting cDNA was diluted with 40 μL of H2O before using for qRT-PCR. qRT-PCR was performed by using the forward and the reverse primer, the corresponding UPL (all from Microsynth, Balgach, Switzerland) and the Taqman Fast advanced master mix (Applied Biosystems), on an ABI 7900 machine (Applied Biosystems).
qRT-PCR Ct-values for the respective P450s were put into relation to the Ct-value of RN18S1 (microsynth, Balgach, Switzerland) of the same sample. Doing so, a respective Δct-value was calculated. Using the average of all Δct-values for the vehicle control samples, a ΔΔct-value was calculated for each sample (ΔΔct-value(sample)=Δct-value(sample)−average of Δct-value of all vehicle controls). The fold induction of the respective sample was calculated as 2^(−ΔΔct). The individual fold induction values were then averaged per treatment condition (usually n=3 biological replicates).
Relative induction values to the respective positive inducer compound condition (10 μM omeprazole for CYP1A2; 1000 μM Phenobarbital for CYP2B6; 10 μM rifampicin for CYP3A4) were then calculated from the fold induction values as follows: Relative induction(%)=100×(T−V)/(P−V)
T: fold induction of test compound condition
P: fold induction of positive inducer compound
V: fold induction of vehicle controls

[2] = test system: HBV replication in HepG2.2.15 cells; assay: Anti-HBV activity in vitro in HepG2.2.15 cells (extracellular HBV DNA by qPCR); assay type: cell-based; conditions: Hepatitis B virus, HepG2.2.15, Anti-HBV activity in HepG2.2.15 cells; read-out: EC50
Summary of the method: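 Constitutively HBV-producing HepG2.2.15 cells were seeded overnight at 37 °C, then treated with half-log serial dilutions of compound (0.5% DMSO final) for five days. Supernatant HBV DNA was extracted and quantified by qPCR; EC50 is the concentration inhibiting HBV replication by 50%.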

[3] = Lyophilisation solubility assay (Lysa); assay type: physicochemical; conditions: pH 6.5, aqueous buffer, thermodynamic from solid
Summary of the method: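 DMSO was evaporated from 10 mM stocks, and residues were taken up in 0.05 M phosphate buffer pH 6.5, stirred 1 h, shaken 2 h and left overnight. Filtrates were quantified by UV or HPLC-UV against a four-point calibration, in duplicate. Values are in μg/ml, with a lower-bound value when >80% dissolved.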

[4] = Human microsomal clearance assay; assay type: in vitro ADME; conditions: human, 1 μM, pH 7.4
Summary of the method: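 Liver microsomes (0.5 mg/mL protein) were incubated with 1 μM compound at 37 °C, pH 7.4 phosphate, with an NADPH-regenerating system. Samples at 0-30 min were quenched and measured by LC-MS/MS for parent loss. No-NADPH controls were included.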

[5] = Cytotoxicity (CCK-8 cell viability) and selectivity index; assay type: cell-based, human; conditions: human, HepDE19 cells; cytotoxicity, concentration resulting in death of 50% of host cells
Summary of the method: (§1)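 HepDE19 cells (5×10^3/well) were treated with compounds as for the EC50 runs and, after 5 days, given CCK-8 for 2 h at 37° C. Absorbance was read at OD450 and OD630, and CC50 was taken as the concentration killing 50% of host cells.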

[6] = test system: HepDE19 cells; assay: as above; assay type: cell-based, human; conditions: CC50 value/EC50 value
Summary of the method: as §1

Row | Compound | % of Positive control (10 μM Rifampicin) [1] [%] | EC50 [2] [nM] | solubility thermodynamic [3] [µg/mL] | CLh [4] [mL/min/kg] | CC50 at 5 days [5] [nM] | Selectivity index (CC50/EC50) [6]
1 | COC(=O)C1=C(CN2C3COCC2CN(C)C3)NC(c2nccs2)=N[C@H]1c1ccc(F)cc1Cl [Example 12, (R)-4-(2-Chloro-4-fluoro-phenyl)-6-(7-methyl-3-oxa-7,9-diaza-bicyclo[3.3.1]non-9-ylmethyl)-2-thiazol-2-yl-1,4-dihydro-pyrimidine-5-carboxylic acid methyl ester] | 21 | 566 | > 597 |  |  | 
2 | COC(=O)C1=C(CN2C3COCC2c2cn[nH]c2C3)NC(c2nccs2)=N[C@H]1c1ccc(F)cc1Cl (stereo partly drawn) [Example 31, (R)-4-(2-Chloro-4-fluoro-phenyl)-6-(10-oxa-4,5,12-triaza-tricyclo[6.3.1.0*2,6*]dodeca-2(6),3-dien-12-ylmethyl)-2-thiazol-2-yl-1,4-dihydro-pyrimidine-5-carboxylic acid methyl ester] | 25 | 35 |  |  |  | 
3 | COC(=O)C1=C(CN2CC3CC(C2)O3)NC(c2nccs2)=N[C@H]1c1ccc(F)cc1Cl [Example 38, (R)-4-(2-Chloro-4-fluoro-phenyl)-6-(6-oxa-3-aza-bicyclo[3.1.1]hept-3-ylmethyl)-2-thiazol-2-yl-1,4-dihydro-pyrimidine-5-carboxylic acid methyl ester] | 35 | 114 |  |  |  | 
4 | COC(=O)C1=C(CN2C3COCC2C(NC(C)=O)C3)NC(c2nccs2)=N[C@H]1c1ccc(F)cc1Cl (stereo partly drawn) [Example 48, Methyl (4R)-6-[(6-acetamido-3-oxa-8-azabicyclo[3.2.1]octan-8-yl)methyl]-4-(2-chloro-4-fluoro-phenyl)-2-thiazol-2-yl-1,4-dihydropyrimidine-5-carboxylate] | 17 | 19.4 | 100 (≈ 187 µM) | 4.8 |  | 
5 | CCOC(=O)C1=C(CN2[C@@H]3COC[C@H]2C[C@H](CC(=O)O)C3)NC(c2nccs2)=N[C@H]1c1cccc(F)c1Cl [Example 66, Exo-2-[(1S,5R)-9-[[(4R)-4-(2-chloro-3-fluoro-phenyl)-5-ethoxycarbonyl-2-thiazol-2-yl-1,4-dihydropyrimidin-6-yl]methyl]-3-oxa-9-azabicyclo[3.3.1]nonan-7-yl]acetic acid] | 6.2 | 3.6 | 390 (≈ 693 µM) | 3.2 |  | 
6 | CCOC(=O)C1=C(CN2[C@@H]3COC[C@H]2C[C@H](CC(=O)O)C3)NC(c2nccs2)=N[C@H]1c1ccc(F)cc1Br [Example 67, Exo-2-[(1S,5R)-9-[[(4R)-4-(2-bromo-4-fluoro-phenyl)-5-ethoxycarbonyl-2-thiazol-2-yl-1,4-dihydropyrimidin-6-yl]methyl]-3-oxa-9-azabicyclo[3.3.1]nonan-7-yl]acetic acid] |  | 4 | 319 (≈ 525 µM) | 2.9 | > 100000 | >25000
7 | CCOC(=O)C1=C(CN2[C@@H]3COC[C@H]2C[C@H](CC(=O)O)C3)NC(c2nccs2)=N[C@H]1c1cccc(F)c1Br [Example 68, Exo-2-[(1S,5R)-9-[[(4R)-4-(2-bromo-3-fluoro-phenyl)-5-ethoxycarbonyl-2-thiazol-2-yl-1,4-dihydropyrimidin-6-yl]methyl]-3-oxa-9-azabicyclo[3.3.1]nonan-7-yl]acetic acid] | 7.7 | 3.8 | 320 (≈ 527 µM) | 3.5 |  | 
8 | CCOC(=O)C1=C(CN2[C@@H]3COC[C@H]2C[C@H](CC(=O)O)C3)NC(c2nccs2)=N[C@H]1c1ccccc1Cl [Example 72, Exo-2-[(1S,5R)-9-[[(4R)-4-(2-chlorophenyl)-5-ethoxycarbonyl-2-thiazol-2-yl-1,4-dihydropyrimidin-6-yl]methyl]-3-oxa-9-azabicyclo[3.3.1]nonan-7-yl]acetic acid] |  | 13.2 | 640 (≈ 1170 µM) | 2.8 | > 100000 | >7576
9 | COC(=O)C1=C(CN2[C@@H]3COC[C@H]2C[C@H](CC(=O)O)C3)NC(c2nccs2)=N[C@H]1c1cccc(F)c1Br [Example 74, Exo-2-[(1S,5R)-9-[[(4R)-4-(2-bromo-3-fluoro-phenyl)-5-methoxycarbonyl-2-thiazol-2-yl-1,4-dihydropyrimidin-6-yl]methyl]-3-oxa-9-azabicyclo[3.3.1]nonan-7-yl]acetic acid] |  | 10.9 | > 621 | 0.5 | > 100000 | >9174
10 | CCOC(=O)C1=C(CN2[C@@H]3COC[C@H]2C[C@H](CC(=O)O)C3)NC(c2nccs2)=N[C@H]1c1ccccc1Br [Example 77, Exo-2-[(1S,5R)-9-[[(4R)-4-(2-bromophenyl)-5-ethoxycarbonyl-2-thiazol-2-yl-1,4-dihydropyrimidin-6-yl]methyl]-3-oxa-9-azabicyclo[3.3.1]nonan-7-yl]acetic acid] |  | 14 | 491 (≈ 833 µM) | 1.3 | > 100000 | >7143
11 | CCOC(=O)C1=C(CN2[C@@H]3COC[C@H]2C[C@H](CC(=O)O)C3)NC(c2nccs2)=N[C@H]1c1ccc(F)c(F)c1C [Example 78, Exo-2-[(1S,5R)-9-[[(4S)-4-(3,4-difluoro-2-methyl-phenyl)-5-ethoxycarbonyl-2-thiazol-2-yl-1,4-dihydropyrimidin-6-yl]methyl]-3-oxa-9-azabicyclo[3.3.1]nonan-7-yl]acetic acid] |  | 2 | 111 (≈ 198 µM) | 1.9 | 73000 | 36515
12 | COC(=O)C1=C(CN2[C@@H]3CC[C@@]2(C(=O)O)COC3)NC(c2nccs2)=N[C@H]1c1ccc(F)cc1Cl [Example 82, (1R,5S)-8-[[(4R)-4-(2-chloro-4-fluoro-phenyl)-5-methoxycarbonyl-2-thiazol-2-yl-1,4-dihydropyrimidin-6-yl]methyl]-3-oxa-8-azabicyclo[3.2.1]octane-5-carboxylic acid] |  | 13.1 | > 628 | 0 | > 100000 | >7634
13 | CCOC(=O)C1=C(CN2C3CCC2(C(=O)O)COC3)NC(c2nccs2)=N[C@H]1c1cccc(F)c1Cl (stereo partly drawn) [Example 83, 8-[[(4R)-4-(2-chloro-3-fluoro-phenyl)-5-ethoxycarbonyl-2-thiazol-2-yl-1,4-dihydropyrimidin-6-yl]methyl]-3-oxa-8-azabicyclo[3.2.1]octane-5-carboxylic acid] |  | 8.6 | 564 (≈ 1050 µM) | 1.6 | 65000 | 7558
14 | COC(=O)C1=C(CN2[C@@H]3CC[C@@]2(C(=O)O)COC3)NC(c2nccs2)=N[C@H]1c1ccc(F)c(F)c1C [Example 85, (1R,5S)-8-[[(4S)-4-(3,4-difluoro-2-methyl-phenyl)-5-methoxycarbonyl-2-thiazol-2-yl-1,4-dihydropyrimidin-6-yl]methyl]-3-oxa-8-azabicyclo[3.2.1]octane-5-carboxylic acid] |  | 6.6 | > 639 | 1.3 | > 100000 | >15152
15 | COC(=O)C1=C(CN2[C@@H]3C[C@H](CC(=O)O)C[C@H]2C(F)(F)C3)NC(c2nccs2)=N[C@H]1c1ccccc1Cl [Example 90, 2-[(1R,3S,5S)-8-[[(4R)-4-(2-chlorophenyl)-5-methoxycarbonyl-2-thiazol-2-yl-1,4-dihydropyrimidin-6-yl]methyl]-6,6-difluoro-8-azabicyclo[3.2.1]octan-3-yl]acetic acid] | 37 | 3.5 | 230 (≈ 417 µM) | 1.5 |  | 
16 | COC(=O)C1=C(CN2[C@@H]3C[C@@H](CC(=O)O)C[C@H]2C(F)(F)C3)NC(c2nccs2)=N[C@H]1c1ccc(F)cc1Cl [Example 109, 2-[(1R,3R,5S)-8-[[(4R)-4-(2-chloro-4-fluoro-phenyl)-5-methoxycarbonyl-2-thiazol-2-yl-1,4-dihydropyrimidin-6-yl]methyl]-6,6-difluoro-8-azabicyclo[3.2.1]octan-3-yl]acetic acid] |  | 1.7 | 107 (≈ 188 µM) | 7.2 | > 100000 | >58824
17 | CCOC(=O)C1=C(CN2C3COCC2C(F)(F)[C@H](CC(=O)O)C3)NC(c2nccs2)=N[C@H]1c1cccc(F)c1Cl (stereo partly drawn) [Example 130, 2-[(7S)-9-[[(4R)-4-(2-chloro-3-fluoro-phenyl)-5-ethoxycarbonyl-2-thiazol-2-yl-1,4-dihydropyrimidin-6-yl]methyl]-6,6-difluoro-3-oxa-9-azabicyclo[3.3.1]nonan-7-yl]acetic acid] |  | 6.4 | 219 (≈ 366 µM) | 5.0 | 69000 | 10830
